Measurements: article PMC8653689, “Phenanthrotriazine Derivatives Containing Arylidine Hydrazone Moieties as Novel Potential c-Met Inhibitors with Anticancer Effect” (Iranian Journal of Pharmaceutical Research : IJPR, 2021)
Where two headings read alike, the source gives them in different places.

How the values were obtained:
[1] = test system: MOLT-4 (lymphoblastic leukemia) cells; assay: MTT reduction assay, antiproliferative effect, MOLT-4; format: cell-based, human; settings: read-out: MOLT-4 IC50
Text: (§1) Fetal bovine serum (FBS), phosphate-buffered saline (PBS), RPMI-1640, and trypsin were obtained from Biosera (Ringmer, UK). Penicillin/streptomycin and MTT (3-(4,5-dimethylthiazol-2-yl)-2,5-diphenyltetrazolium bromide) were from Sigma-Aldrich (Saint Louis, MO, USA) and Invitrogen (San Diego, CA, USA), respectively. Dimethyl sulfoxide and doxorubicin were purchased from Merck (Darmstadt, Germany) and EBEWE Pharma (Unterach, Austria), respectively. The cells were acquired from Iranian Biological Resource Center, Tehran, Iran (HT-29 (human colorectal adenocarcinoma), MCF-7 (human breast adenocarcinoma) and Vero (African green monkey kidney) cells) or National Cell Bank of Iran, Pasteur Institute, Tehran, Iran (MOLT-4 (lymphoblastic leukemia) cells).
(§2) MTT reduction assay was employed to assess the viability of cancer cells after being treated with synthesized derivatives as previously described ([34]). The cells were plated in flat-bottom 96-well microplates, at densities of 3 × 10^4 cells/mL (100 μL in each well) and then incubated overnight at 37 °C. Three to four different concentrations of synthesized derivatives (in the range of 1 to 100 μM) were placed in triplicate wells and the plates were incubated for 72 h at 37 °C. […] At the end of the incubation time, 80 μL of the media in each well was replaced with the same amount of growth medium without phenol red containing 0.5 mg/mL of MTT. Cells were further incubated at 37 °C for 4 h and then 80 μL of the solution of each well was removed. The addition of DMSO (200μL) to each well solubilized the formazan crystals formed inside the viable cells after 1-hour incubation followed by 30-minute shaking. The optical absorbance of the final solution was determined at 570 nm using a Bio-Tek multimode plate reader (Synergy HTX). The cell viability was calculated compared to untreated control cells by comparison of absorbance measurements. CurveExpert software (version 1.34 for Windows) was used to determine the IC50 value for each compound. To confirm the results, every experiment was repeated 3 to 5 times.

MCF-7 cells [2] = assay: Cell cycle analysis, propidium iodide/RNase flow cytometric assay; format: cell-based, human; settings: 48 h; for Effect on number of cells in G0/G1: MCF-7, 10 and 25 µM
Description: Alterations of the cell cycle were determined by the propidium iodide (PI)-RNase flow cytometric method ([35]). MCF-7 cells were used to determine the percentage of cells in each phase of the cell cycle. In 6-well plates, 2 × 10^5 cells were seeded in each well and incubated at 37 °C for 48 h. Afterward, they were treated for 48 h with derivatives 9g, 9j, 9k and 9l at 10 and 25 μM. The cells were then collected after trypsinization, washed twice with PBS, and fixed by 5 mL ethanol 70% for at least 24 h at -20 °C. After fixation, MCF-7 cells were washed with PBS two times and stained with PI 20 µg/mL and RNase 200 µg/mL for 30 min in the dark at room temperature. A FACS Calibur ﬂow cytometer (BD Biosciences) was used for the assays and 20,000 events were analyzed. The number of cells distributed in sub-G1, G0/G1, S, and G2/M were determined by CellQuest software (BD, USA).
Figure 2 Representative cell cycle histograms of MCF-7 cells treated with synthesized derivatives. Analysis of the percentage of cells in different phases of cell cycle was performed using propidium iodide (PI)-RNase flow cytometric assay. MCF-7 cells were seeded in 6-well microplates and treated with synthesized derivatives for 48 h. The cells were then collected and fixed in 70% ethanol overnight at -20 °C. In the end, the cells were stained with DNA staining solution (PI 20 µg/mL and RNase 200 µg/mL) for 30 min and 20,000 events were analyzed by a FACS Calibur ﬂow cytometer (BD Biosciences). Representative histograms of cells treated with compounds 9g, 9j, 9k and 9l are shown

[3] = test system: Vero (African green monkey kidney) cells; assay: MTT reduction assay, Vero normal cells; format: cell-based; settings: read-out: Vero IC50
Text: as §1, §2

MCF-7 cells [4] = assay: Hoechst 33258 staining, detection of apoptosis; format: cell-based, human; settings: MCF-7, 72 h treatment, especially at 25 µM
Description: Hoechst 33258 was used as a DNA stain to detect apoptosis in cells. MCF-7 cells were seeded in a 6-well plate at a density of 5 × 10^4 cells/mL (2 mL per well) and incubated for 24 h. The whole medium was removed and different concentrations of test compounds 9g, 9j, 9k, and 9l diluted in 2 mL medium were placed in the different wells and incubated for 72 h. Afterward, the medium was removed again, 1 mL of 4% cold freshly prepared paraformaldehyde (PFA) was added, and cells were incubated for 20 min at room temperature. The cells were then washed 2 times with 1 ml PBS and incubated with 1 mL Hoechst 33258 2.5 µg/mL for 30 min in the dark at room temperature ([36], [37]). In the end, the cells were washed with 1 mL PBS and imaged with a fluorescence microscope.
Figure 3 Detection of apoptosis in MCF-7 cells by Hoechst staining. Hoechst 33258 was used as a DNA stain to detect apoptosis in MCF-7 cells treated with synthesized compounds. The cells were seeded in a 6-well plates and treated with different concentrations of test compounds 9g, 9j, 9k and 9l for 72 h. After removing the whole medium, 4% cold freshly prepared paraformaldehyde (PFA) was added for 20 min at room temperature, the cells were then washed twice with PBS, and incubated with Hoechst 33258 2.5 µg/mL for 30 min at room temperature in the dark. Finally, the cells were washed with PBS again and the plates were imaged with a fluorescence microscope

[5] = test system: HT-29 (human colorectal adenocarcinoma) cells; assay: MTT reduction assay, antiproliferative effect, HT-29; format: cell-based; settings: for IC50: read-out: HT-29 IC50; for viability at 25 µM: cell line not named in the sentence (NA in HT-29, MCF-7, MOLT-4 in Table 1), read-out: Cell viability at the highest tested concentration
Text: as §1, §2

[6] = test system: MCF-7 (human breast adenocarcinoma) cells; assay: MTT reduction assay, antiproliferative effect, MCF-7; format: cell-based
Text: as §1, §2

[7] = Chlorocebus sabaeus, Vero, 72 h
[8] = Homo sapiens, MCF7, 72 h, read-out: MCF-7 IC50, MTT, 72 h incubation

O=[N+]([O-])c1ccccc1C=NNc1nnc2c3ccccc3c3ccccc3c2n1 [Compound 9g, 3-(2-(2-nitrobenzylidene)hydrazinyl)phenanthro[9,10-e][1,2,4]triazine]
IC50 ([1]; Homo sapiens, MOLT-4, 72 h): 5.4 ± 1 µM | Percentage of cells in G0/G1 (MCF-7 cells [2]; MCF-7, 10 µM): 69.25 ± 2.1 | Percentage of cells in G2/M (MCF-7 cells [2]; MCF-7, 10 µM): 18.58 ± 2.2 | Percentage of cells in S (MCF-7 cells [2]; MCF-7, 10 µM): 8.79 ± 1.3 | Percentage of cells in Sub G1 (MCF-7 cells [2]; MCF-7, 10 µM): 1.35 ± 0.3 | Effect on cells in sub-G1 phase (MCF-7 cells [2]; MCF-7, 25 µM): increased the cells in the sub-G1 phase | Percentage of cells in G0/G1 (MCF-7 cells [2]; MCF-7, 25 µM): 74.76 ± 4.9 | Percentage of cells in G2/M (MCF-7 cells [2]; MCF-7, 25 µM): 13.97 ± 3.3 | Percentage of cells in S (MCF-7 cells [2]; MCF-7, 25 µM): 7.58 ± 1.9 | Percentage of cells in Sub G1 (MCF-7 cells [2]; MCF-7, 25 µM): 1.82 ± 0.3 | Effect on number of cells in G0/G1 (MCF-7 cells [2]): significantly enhanced the number of cells in the G0/G1 | melting point: 225 to 229 °C | IC50 [3, 7]: 11.1 ± 1 µM | Apoptosis induction by Hoechst 33258 staining (MCF-7 cells [4]): showed signs of apoptosis | IC50 ([5]; Homo sapiens, HT-29, 72 h): 16.7 ± 2.2 µM | IC50 [6, 8]: 6.2 ± 1.3 µM

N.N.[Cl][Pt][Cl] [Cisplatin, reference compound]
IC50 ([1]; MTT, 72 h incubation): 2.9 ± 0.2 µM | IC50 ([3]; MTT, 72 h incubation, normal cells): 7.8 ± 1 µM | IC50 ([5]; MTT, 72 h incubation): 24.6 ± 3.6 µM | IC50 ([6]; MTT, 72 h incubation, read-out: MCF-7 IC50): 8.1 ± 2.6 µM

COc1cccc2c1C(=O)c1c(O)c3c(c(O)c1C2=O)C[C@@](O)(C(=O)CO)C[C@@H]3O[C@H]1C[C@H](N)[C@H](O)[C@H](C)O1 [Doxorubicin, reference compound]
IC50 ([1]; Homo sapiens, MOLT-4, MTT, 72 h incubation): 0.017 ± 0.001 µM | IC50 ([3]; Chlorocebus sabaeus, Vero, MTT, 72 h incubation, normal cells): 0.926 ± 0.031 µM | IC50 ([5]; Homo sapiens, HT-29, MTT, 72 h incubation): 0.409 ± 0.038 µM | IC50 ([6]; Homo sapiens, MCF7, MTT, 72 h incubation, read-out: MCF-7 IC50): 0.066 ± 0.007 µM

Oc1cccc(C=NNc2nnc3c4ccccc4c4ccccc4c3n2)c1O [Compound 9f, 3-((2-(phenanthro[9,10-e][1,2,4]triazin-3-yl)hydrazono)methyl)benzene-1,2-diol]
melting point: 329 to 333 °C | viability at 25 µM ([5]; Homo sapiens, MTT): ≥ 50%

O=[N+]([O-])c1cccc(C=NNc2nnc3c4ccccc4c4ccccc4c3n2)c1 [Compound 9h, 3-(2-(3-nitrobenzylidene)hydrazinyl)phenanthro[9,10-e][1,2,4]triazine]
IC50 ([1]; Homo sapiens, MOLT-4, 72 h): 3.9 ± 0.6 µM | melting point: 216 to 219 °C | IC50 [3, 7]: 19.4 ± 6.8 µM | IC50 ([5]; Homo sapiens, HT-29, 72 h): 12.2 ± 4.1 µM | IC50 [6, 8]: 10.4 ± 2.9 µM

C(=NNc1nnc2c3ccccc3c3ccccc3c2n1)c1ccccc1 [Compound 9a, 3-(2-benzylidenehydrazinyl)phenanthro [9,10-e][1,2,4]triazine]
melting point: 286 to 290 °C | viability at 25 µM ([5]; Homo sapiens, MTT): ≥ 50%

O=[N+]([O-])c1ccc(C=NNc2nnc3c4ccccc4c4ccccc4c3n2)cc1 [Compound 9i, 3-(2-(4-nitrobenzylidene)hydrazinyl)phenanthro[9,10-e][1,2,4]triazine]
IC50 ([1]; Homo sapiens, MOLT-4, 72 h): 7.5 ± 0.1 µM | melting point: 240 to 244 °C | IC50 [3, 7]: 7.4 ± 1.4 µM | IC50 ([5]; Homo sapiens, HT-29, 72 h): 7.6 ± 0.8 µM | IC50 [6, 8]: 17.7 ± 1.7 µM

C(=NNc1nnc2c3ccccc3c3ccccc3c2n1)c1ccc[nH]1 [Compound 9k, 3-(2-((1H-pyrrol-2-yl)methylene)hydr-zinyl)phenanthro[9,10-e][1,2,4]triazine]
IC50 ([1]; Homo sapiens, MOLT-4, 72 h): 1.7 ± 0.2 µM | Percentage of cells in G0/G1 (MCF-7 cells [2]; MCF-7, 10 µM): 77.30 ± 2.8 | Percentage of cells in G2/M (MCF-7 cells [2]; MCF-7, 10 µM): 16.63 ± 2.5 | Percentage of cells in S (MCF-7 cells [2]; MCF-7, 10 µM): 4.63 ± 0.7 | Percentage of cells in Sub G1 (MCF-7 cells [2]; MCF-7, 10 µM): 1.31 ± 0.1 | Effect on cells in sub-G1 phase (MCF-7 cells [2]; MCF-7, 25 µM): increased the cells in the sub-G1 phase | Percentage of cells in G0/G1 (MCF-7 cells [2]; MCF-7, 25 µM): 77.42 ± 3.7 | Percentage of cells in G2/M (MCF-7 cells [2]; MCF-7, 25 µM): 16.13 ± 2.9 | Percentage of cells in S (MCF-7 cells [2]; MCF-7, 25 µM): 4.68 ± 1.2 | Percentage of cells in Sub G1 (MCF-7 cells [2]; MCF-7, 25 µM): 1.69 ± 0.4 | Effect on number of cells in G0/G1 (MCF-7 cells [2]): significantly enhanced the number of cells in the G0/G1 | melting point: 210 to 214 °C | IC50 [3, 7]: 95.4 ± 12.4 µM | Apoptosis induction by Hoechst 33258 staining (MCF-7 cells [4]): showed signs of apoptosis | IC50 ([5]; Homo sapiens, HT-29, 72 h): 14.3 ± 2.8 µM | IC50 [6, 8]: 4.5 ± 0.16 µM | IC50 ([6]; read-out: MCF-7 IC50, MTT, 72 h incubation): 4.7 ± 0.3 µM

Oc1cccc(C=NNc2nnc3c4ccccc4c4ccccc4c3n2)c1 [Compound 9e, 3-((2-(phenanthro[9,10-e][1,2,4]triazin-3-yl)hydrazono)methyl)phenol]
IC50 ([1]; Homo sapiens, MOLT-4, 72 h): 4.4 ± 1.1 µM | melting point: 219 to 223 °C | IC50 [3, 7]: 30 ± 6 µM | IC50 ([5]; Homo sapiens, HT-29, 72 h): 15.2 ± 2.1 µM | IC50 [6, 8]: 9.3 ± 1.6 µM

COc1ccccc1C=NNc1nnc2c3ccccc3c3ccccc3c2n1 [Compound 9b, 3-(2-(2-methoxybenzylidene)hydrazinyl)phenanthro[9,10-e][1,2,4]triazine]
IC50 ([1]; Homo sapiens, MOLT-4, 72 h): 7.8 ± 1.8 µM | melting point: 252 to 254 °C | IC50 [3, 7]: 13 ± 1.8 µM | IC50 ([5]; Homo sapiens, HT-29, 72 h): 20.1 ± 3 µM | IC50 [6, 8]: 15.2 ± 3.1 µM
